Data reported in US6372770B1, “Benzoxazoles” (Euro-Celtique, S.A., priority 1994, dated 2002).
pIC50: −log10 of the molar value. Read-outs that look alike come from different tables or passages of the source.

Assays:
PDE IV [1] = tested on: T1, PDE IV; experiment: Type IV PDE inhibition, hydrolysis of [3H]-cyclic AMP; format: biochemical, bovine
T1 construct: PDE IV IC50; other: Type IV PDE isolated from bovine tracheal smooth muscle; rolipram run in the
From the text: The PDE IV inhibitory compounds of the present invention may be examined for their PDE IV inhibitory effects via the techniques set forth in the following examples, wherein the ability of the compounds to inhibit PDE IV isolated from bovine tracheal smooth muscle is set forth.
The Type IV PDE is isolated from bovine tracheal smooth muscle using a procedure similar to that previously described by Silver, P. J. et al., Eur. J. Pharmacol. 150:85,1988.(1). Briefly, smooth muscle from bovine trachea is minced and homogenized using a polytron in 10 volumes of an extraction buffer containing 10 mM Tris-acetate (pH 7.5), 2 mM magnesium chloride, 1 mM dithiothreitol and 2,000 units/ml of aprotinin. This and all subsequent procedures are performed at 0-4° C. The homogenate is sonicated and then centrifuged at 48,000×g for 30 minutes. The resulting supernatant is applied to a DEAE Trisacryl M column previously equilibrated with sodium acetate and dithiothreitol. After applications of the sample, the column is washed with sodium acetate/dithiothreitol, after whlich the different forms of PDE are eluted from the column using a linear Tris-HCl/NaCl gradient. Fractions containing Type IV PDE are collected, dialyzed and concentrated to 14% of the original volume. The concentrated fractions are diluted to 50% with ethylene glycol and stored at −20° C.
(§1) Enzyme activity is assessed by measuring the hydrolysis of [^3H]-cyclic AMP, as described by Thompson, W. J. et al., Adv. Cyclic Nucleotide Res. 10:69, 1979. The cyclic AMP concentration used in this assay is 0.2 μM, which approximates the Km value. Protein concentration is adjusted to ensure that no more than 15% of the available substrate is hydrolyzed during the incubation period.
(§2) All test compounds are dissolved in dimethyl sulfoxide (final concentration of 2.5%). This concentration of dimethyl sulfoxide inhibits enzyme activity by approximately 10%.

PDE III = target: T2, PDE III (Homo sapiens, UniProt Q14432); experiment: Type III PDE inhibition, hydrolysis of [3H]-cyclic AMP; format: biochemical; conditions: Type III PDE isolated from human platelets; 0.2 μM cyclic AMP
T2 construct: Fractions containing PDE III activity are pooled and dialyzed overnight; from tissue; host or cells: human platelets
Description: The Type III PDE is isolated from human platelets using a procedure similar to that previously described by Washer, R. E. et al., Biochem. Pharmacol., 35:787, 1986. Briefly, 1-2 units of platelets are suspended in an equal volume of buffer (20 mM Tris-HCl, pH 7.5, containing 2 mM magnesium acetate, 1 mM dithiothreitol, and 5 mM Na2EDTA). The proteinase inhibitor phenylmethyl-sulfonyl fluoride (PMSF) is also included in this buffer at a final concentration of 200 μM. The suspension is homogenized using a polytron and the homogenate centrifuged at 100,000×g for 60 minutes. This and all subsequent procedures are performed at 0-4° C. The supernatant is then filtered through four layers of gauze and applied to a DEAE-Trisacryl M column, previously equilibrated with buffer B (20 mM Tris-HCl, pH 7.5, containing 1 mM magnesium acetate, 1 mM dithiothreitol and 200 μM PMSF). After application of the sample, the column is washed with several bed volumes of buffer B, after which the different forms of PDE are eluted from the column using two successive linear NaCl gradients (0.05-0.15 M, 300 ml total; 0.15-0.40 M, 200 ml total). Five ml fractions are collected and assayed for cyclic AMP and cyclic GMP PDE activity. Fractions containing PDE III activity are pooled and dialyzed overnight against 4 L of buffer B. The dialyzed PDE III is then concentrated to 10% of the original volume, diluted to 50% with ethylene glycol monoethyl ether and stored at −20° C. PDE III can typically be retained for up to four weeks with little or no loss of activity.
as §1, with “approximates to” for “approximates”
as §2

PDE IV [2] = conditions: cited from earlier work
[3] = Type IV PDE isolated from bovine tracheal smooth muscle, 0.2 μM cyclic AMP, read-out: PDE IV IC50

T2 sequence (Q14432 whole entry): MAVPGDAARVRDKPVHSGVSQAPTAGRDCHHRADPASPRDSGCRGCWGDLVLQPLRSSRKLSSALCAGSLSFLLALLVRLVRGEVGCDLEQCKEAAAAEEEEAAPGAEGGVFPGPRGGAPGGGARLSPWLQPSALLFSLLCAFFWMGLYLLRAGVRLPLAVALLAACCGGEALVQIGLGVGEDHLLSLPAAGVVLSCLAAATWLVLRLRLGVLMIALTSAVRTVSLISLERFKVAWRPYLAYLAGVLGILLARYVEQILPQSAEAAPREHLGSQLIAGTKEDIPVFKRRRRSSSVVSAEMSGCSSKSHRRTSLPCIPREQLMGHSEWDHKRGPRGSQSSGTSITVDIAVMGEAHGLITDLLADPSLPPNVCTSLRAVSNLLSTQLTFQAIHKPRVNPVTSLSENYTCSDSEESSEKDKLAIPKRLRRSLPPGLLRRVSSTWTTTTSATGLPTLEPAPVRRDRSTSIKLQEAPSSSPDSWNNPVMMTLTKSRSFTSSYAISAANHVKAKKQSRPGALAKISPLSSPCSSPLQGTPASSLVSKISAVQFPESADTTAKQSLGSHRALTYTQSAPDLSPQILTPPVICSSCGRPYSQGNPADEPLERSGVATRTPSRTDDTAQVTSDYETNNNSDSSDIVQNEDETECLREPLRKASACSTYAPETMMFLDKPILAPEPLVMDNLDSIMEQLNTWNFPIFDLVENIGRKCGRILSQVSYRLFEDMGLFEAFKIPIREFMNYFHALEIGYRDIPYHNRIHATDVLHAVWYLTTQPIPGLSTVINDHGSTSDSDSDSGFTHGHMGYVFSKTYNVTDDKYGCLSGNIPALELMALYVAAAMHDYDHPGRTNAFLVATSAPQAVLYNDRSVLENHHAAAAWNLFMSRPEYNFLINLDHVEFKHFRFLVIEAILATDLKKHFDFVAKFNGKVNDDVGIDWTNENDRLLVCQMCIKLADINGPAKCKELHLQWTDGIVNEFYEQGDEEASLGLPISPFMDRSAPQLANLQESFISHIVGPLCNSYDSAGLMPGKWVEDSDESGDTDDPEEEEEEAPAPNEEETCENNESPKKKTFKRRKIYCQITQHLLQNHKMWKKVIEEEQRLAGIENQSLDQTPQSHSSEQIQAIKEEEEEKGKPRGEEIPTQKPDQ

Row | melting point [°C] | pIC50 (PDE IV [1]; [3]) | pIC50 (PDE III) | Structure (SMILES) | also measured
1 | 109 to 110 | 6.22 | < 3.52 | CC(=O)CCc1cc(Cl)cc2nc(-c3ccccc3Cl)oc12 [Example 9, 4-(5-Chloro-2-(2-chlorophenyl)benzoxazol-7-yl)butan-2-one] | 
2 | 181 to 183 |  |  | NC(=O)CCc1cc(Cl)cc2nc(Cc3ccccc3Cl)oc12 [Example 55(a), 5-Chloro-2-(2-chlorobenzyl)-benzoxazole-7-propanamide] | 
3 | 149 to 151 | 6.43 | 4.94 | COc1ccc(Cc2nc3cc(Cl)cc(CC=NO)c3o2)cc1OC1CCCC1 [Example 26, 2-(3-Cyclopentyloxy-4-methoxybenzyl)-5-chlorobenzoxazole-7-ethanal Oxime] | 
4 | 72 to 79 |  |  | OCCCCCc1cc(Cl)cc2nc(Cc3ccccc3Cl)oc12 [Example 60(b), 5-chloro-2-(2-chlorobenzyl)-7-(5-hydroxypentyl)-benzoxazole] | 
5 | 149 to 151 |  |  | Clc1cc(C#Cc2nccs2)c2oc(Cc3ccccc3Cl)nc2c1 [Example 59(a), 5-chloro-2-(2-chlorobenzyl)-7-[2-(2-thiazolyl)ethynyl]-benzoxazole] | 
6 |  |  |  | COc1ccc(C2CNC(=O)C2)cc1OC1CCCC1 (stereo not shown) [Rolipram, reference compound] | pIC50 (PDE IV [1]; read-out: concentration which yields 50% inhibition of PDE IV (IC50), value of the description, rolipram run in the same assay): 5.55; pIC50 (PDE IV [2]; historically considered value, read-out: PDE IV IC50, historical value): 5.46
7 | 95 to 97 |  |  | COc1ccc(Cc2nc3cccc(CCCO)c3o2)cc1OC [Example 61, 2-(3,4-dimethoxybenzyl)-7-(3-hydroxy-propyl)-benzoxazole] | 
8 |  | 4.80 | 4.31 | OCCCc1cc(Cl)cc2nc(Cc3cccc(Cl)c3)oc12 [Example 42, 3-[5-Chloro-2-(3-chlorobenzyl)benzoxazol-7-yl]propan-1-ol] | 
9 |  | 4.41 | 4.11 | OCCCc1cc(Cl)cc2nc(Cc3ccccc3)oc12 [Example 37, 2-Benzyl-5-chloro-7-(3-hydroxy-1-propyl)Benzoxazole] | 
10 |  | 4.60 | 5.13 | COc1ccc(Cc2nc3cc(Cl)cc(Br)c3o2)cc1OC1CCCC1 [Example 4, 7-Bromo-5-chloro-2-(3-cyclopentyloxy-4-methoxybenzyl)-benzoxazole] | 
11 |  | 4.71 | < 3.52 | COc1ccc(-c2nc3cc(Cl)ccc3o2)cc1OC [Example 44, 5-Chloro-2-(3,4-dimethoxyphenyl)Benzoxazole] | 
12 |  | 4.71 | < 3.52 | COc1ccc(Cc2nc3cccc(NCc4ncc[nH]4)c3o2)cc1OC1CCCC1 [Example 35, 2-(3-Cyclopentyloxy-4-methoxybenzyl)-7-(2-imidazolylmethylamino)Benzoxazole] | 
13 |  | 4.95 | 4.00 | COc1ccc(Cc2nc3cc(Cl)cc(CC(=O)O)c3o2)cc1OC1CCCC1 [Example 29, 2-(3-Cyclopentyloxy-4-methoxybenzyl)-5-chlorobenzoxazole-7-acetic Acid] | 
14 | 66 to 68 | 6.19 | 3.93 | COc1ccc(Cc2nc3cc(Cl)cc(CC=O)c3o2)cc1OC1CCCC1 [Example 25, 2-(3-Cyclopentyloxy-4-methoxybenzyl)-5-chlorobenzoxazole-7-ethanal] | 
15 |  |  |  | Cn1c(=O)c2[nH]cnc2n(C)c1=O [theophylline] | pIC50 (PDE IV [2]; read-out: concentration giving 50% inhibition of PDE IV, stated in the description without a test): ~3.46

Row | Structure (SMILES) | melting point [°C] | pIC50 (PDE IV [1]; [3]) | pIC50 (PDE III) | also measured
16 | CC(=O)Oc1c(C(C)(C)C)cc(CCc2nc3cc(Cl)cc(CCc4ccccn4)c3o2)cc1C(C)(C)C [Example 58(b), 2-[2-(4-acetoxy-3,5-di-t-butyl-phenyl)ethyl]-5-chloro-7-[2-(2-pyridyl)ethyl]-benzoxazole] | 134 to 135 |  |  | 
17 | COc1ccc(Cc2nc3cc(Cl)cc(CCO)c3o2)cc1OC1CCCC1 [Example 27, 2-(3-Cyclopentyloxy-4-methoxybenzyl)-5-chloro-7-(2-hydroxyethyl)Benzoxazole] |  | 6.19 | 4.42 | 
